Drawing on patent publication US12371428B2 (Exelixis, Inc., priority 2019, dated 2025), this text covers IC50 for 18 compounds.

In test [1] the target is Mer (phospho-Mer, MERTK-transfected 293A cells) (Homo sapiens (Human), UniProt Q12866). Kind of test: Mer autophosphorylation ELISA in transient transfected 293A cells (Example H). The class given is cell-based. The following applies: cellular activity; Mer autophosphorylation ELISA in transient transfected 293A cells. An outline of the steps: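 IC50 from phospho-Mer ELISA of MERTK-transfected 293A cell lysates after 1 h treatment with serially diluted compound in serum-free medium.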
Background: An ELISA detects its analyte on a solid surface through an enzyme-linked reagent.

Test [2] addresses Human MER (residues 528-999) (Homo sapiens (Human), UniProt Q12866). The test can be described thus: Human Mer kinase assay, HTRF KinEase (Example C-2). Type of test: biochemical. A digest of the protocol: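 Recombinant MER 528-999 (1 ng/well) in buffer with 5 mM MgCl2 and 1 mM DTT was reacted with biotinylated peptide and ATP at Km (40 μM) for 60 min at room temperature. EDTA stop with SA-XL665 and Eu3+ TK antibody, then 665/620 nm HTRF read; IC50 from 4-parameter fit.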
On the technique in general: In TR-FRET formats the signal depends on donor and acceptor labels being close together.

In test [3] the target is KDR (phospho-KDR, VEGF165-stimulated HUVEC cells) (Homo sapiens (Human), UniProt P35968). The test can be described thus: KDR autophosphorylation ELISA in HUVEC cells (Example G). The following applies: cellular activity; KDR autophosphorylation ELISA in HUVEC cells. The class given is cell-based. An outline of the steps: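 Read-out: phospho-KDR in cell lysates by DuoSet IC ELISA, normalised between VEGF-stimulated DMSO wells (100%) and unstimulated wells (0%). Human endothelial cells were starved overnight in serum-free medium, exposed to compound for 1 h, and then pulsed with 100 ng/mL VEGF165 for 5 min.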

Test [4] addresses Human KDR (residues 790-1356) (Homo sapiens (Human), UniProt P35968). The test can be described thus: Human KDR kinase assay, HTRF KinEase (Example B-2). The class given is biochemical. An outline of the steps: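 Ten compound concentrations (3% DMSO final) were pre-plated, then KDR (790-1356) with biotinylated peptide in Mg/Mn/DTT buffer was added; ATP at Km (4.0 μM) started a 40 min room-temperature reaction. Detection used Eu-TK antibody and SA-XL665 in EDTA buffer; activity normalized to DMSO and reference inhibitor, IC50 by logistic fit.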

One may read the pIC50 as −log10 of the IC50, conventionally taken in molar units.

pIC50: −log10 of the molar value. Where only a bound is given, the exact number is not on record here.

Chain of Human KDR (residues 790-1356) (P35968 790-1356): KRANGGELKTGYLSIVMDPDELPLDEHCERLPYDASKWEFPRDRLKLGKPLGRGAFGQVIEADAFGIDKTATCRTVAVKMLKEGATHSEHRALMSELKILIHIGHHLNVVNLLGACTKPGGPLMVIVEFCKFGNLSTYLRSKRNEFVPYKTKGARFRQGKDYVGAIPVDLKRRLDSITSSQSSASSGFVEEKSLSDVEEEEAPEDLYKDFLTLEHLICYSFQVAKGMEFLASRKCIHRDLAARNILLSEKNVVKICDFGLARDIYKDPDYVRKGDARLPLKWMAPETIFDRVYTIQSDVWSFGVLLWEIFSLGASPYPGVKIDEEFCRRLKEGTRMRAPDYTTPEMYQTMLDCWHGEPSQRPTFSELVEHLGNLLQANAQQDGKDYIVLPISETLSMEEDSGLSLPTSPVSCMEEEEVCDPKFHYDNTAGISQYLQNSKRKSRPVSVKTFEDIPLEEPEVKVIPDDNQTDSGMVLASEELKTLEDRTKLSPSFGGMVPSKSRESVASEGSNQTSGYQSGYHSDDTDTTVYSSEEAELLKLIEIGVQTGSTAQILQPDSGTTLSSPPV
Chain of Mer (phospho-Mer, MERTK-transfected 293A cells) (Q12866 21-999): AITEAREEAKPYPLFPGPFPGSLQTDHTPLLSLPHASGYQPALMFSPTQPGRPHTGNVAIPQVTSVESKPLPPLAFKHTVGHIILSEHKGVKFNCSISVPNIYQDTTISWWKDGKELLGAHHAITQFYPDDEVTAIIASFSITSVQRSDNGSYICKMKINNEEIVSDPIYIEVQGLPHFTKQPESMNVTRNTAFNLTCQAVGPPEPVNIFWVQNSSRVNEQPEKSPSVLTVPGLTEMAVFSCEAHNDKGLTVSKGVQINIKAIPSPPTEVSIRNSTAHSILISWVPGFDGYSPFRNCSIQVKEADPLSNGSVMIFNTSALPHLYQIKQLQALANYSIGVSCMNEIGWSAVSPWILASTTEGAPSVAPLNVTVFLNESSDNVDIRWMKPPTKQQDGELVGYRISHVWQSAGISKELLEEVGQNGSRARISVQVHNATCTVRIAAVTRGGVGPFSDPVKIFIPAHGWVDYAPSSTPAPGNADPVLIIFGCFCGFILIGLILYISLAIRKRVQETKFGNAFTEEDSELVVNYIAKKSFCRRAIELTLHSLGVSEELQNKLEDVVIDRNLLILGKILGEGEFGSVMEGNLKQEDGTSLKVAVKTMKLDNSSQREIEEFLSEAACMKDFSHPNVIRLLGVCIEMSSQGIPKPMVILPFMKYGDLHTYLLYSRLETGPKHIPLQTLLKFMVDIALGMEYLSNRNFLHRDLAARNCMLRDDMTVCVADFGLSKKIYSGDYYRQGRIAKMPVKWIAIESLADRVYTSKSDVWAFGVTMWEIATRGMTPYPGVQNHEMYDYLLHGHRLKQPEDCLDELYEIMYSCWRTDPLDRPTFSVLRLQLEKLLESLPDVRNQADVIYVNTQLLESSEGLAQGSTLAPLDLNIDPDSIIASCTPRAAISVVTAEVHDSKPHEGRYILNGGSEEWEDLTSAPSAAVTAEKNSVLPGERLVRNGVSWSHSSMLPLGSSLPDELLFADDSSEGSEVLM
Chain of Human MER (residues 528-999) (Q12866 528-999): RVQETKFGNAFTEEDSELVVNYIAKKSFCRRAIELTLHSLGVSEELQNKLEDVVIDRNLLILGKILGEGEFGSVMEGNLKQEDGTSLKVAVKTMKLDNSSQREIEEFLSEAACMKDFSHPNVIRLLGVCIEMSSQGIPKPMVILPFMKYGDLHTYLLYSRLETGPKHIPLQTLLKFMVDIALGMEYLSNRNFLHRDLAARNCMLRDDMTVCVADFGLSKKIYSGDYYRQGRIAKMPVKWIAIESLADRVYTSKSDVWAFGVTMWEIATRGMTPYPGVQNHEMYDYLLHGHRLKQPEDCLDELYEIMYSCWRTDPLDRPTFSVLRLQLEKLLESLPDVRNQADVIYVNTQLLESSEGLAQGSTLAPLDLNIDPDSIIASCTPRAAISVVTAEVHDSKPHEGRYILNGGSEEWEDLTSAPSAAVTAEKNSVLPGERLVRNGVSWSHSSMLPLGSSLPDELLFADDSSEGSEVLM
Chain of KDR (phospho-KDR, VEGF165-stimulated HUVEC cells) (P35968 20-1356): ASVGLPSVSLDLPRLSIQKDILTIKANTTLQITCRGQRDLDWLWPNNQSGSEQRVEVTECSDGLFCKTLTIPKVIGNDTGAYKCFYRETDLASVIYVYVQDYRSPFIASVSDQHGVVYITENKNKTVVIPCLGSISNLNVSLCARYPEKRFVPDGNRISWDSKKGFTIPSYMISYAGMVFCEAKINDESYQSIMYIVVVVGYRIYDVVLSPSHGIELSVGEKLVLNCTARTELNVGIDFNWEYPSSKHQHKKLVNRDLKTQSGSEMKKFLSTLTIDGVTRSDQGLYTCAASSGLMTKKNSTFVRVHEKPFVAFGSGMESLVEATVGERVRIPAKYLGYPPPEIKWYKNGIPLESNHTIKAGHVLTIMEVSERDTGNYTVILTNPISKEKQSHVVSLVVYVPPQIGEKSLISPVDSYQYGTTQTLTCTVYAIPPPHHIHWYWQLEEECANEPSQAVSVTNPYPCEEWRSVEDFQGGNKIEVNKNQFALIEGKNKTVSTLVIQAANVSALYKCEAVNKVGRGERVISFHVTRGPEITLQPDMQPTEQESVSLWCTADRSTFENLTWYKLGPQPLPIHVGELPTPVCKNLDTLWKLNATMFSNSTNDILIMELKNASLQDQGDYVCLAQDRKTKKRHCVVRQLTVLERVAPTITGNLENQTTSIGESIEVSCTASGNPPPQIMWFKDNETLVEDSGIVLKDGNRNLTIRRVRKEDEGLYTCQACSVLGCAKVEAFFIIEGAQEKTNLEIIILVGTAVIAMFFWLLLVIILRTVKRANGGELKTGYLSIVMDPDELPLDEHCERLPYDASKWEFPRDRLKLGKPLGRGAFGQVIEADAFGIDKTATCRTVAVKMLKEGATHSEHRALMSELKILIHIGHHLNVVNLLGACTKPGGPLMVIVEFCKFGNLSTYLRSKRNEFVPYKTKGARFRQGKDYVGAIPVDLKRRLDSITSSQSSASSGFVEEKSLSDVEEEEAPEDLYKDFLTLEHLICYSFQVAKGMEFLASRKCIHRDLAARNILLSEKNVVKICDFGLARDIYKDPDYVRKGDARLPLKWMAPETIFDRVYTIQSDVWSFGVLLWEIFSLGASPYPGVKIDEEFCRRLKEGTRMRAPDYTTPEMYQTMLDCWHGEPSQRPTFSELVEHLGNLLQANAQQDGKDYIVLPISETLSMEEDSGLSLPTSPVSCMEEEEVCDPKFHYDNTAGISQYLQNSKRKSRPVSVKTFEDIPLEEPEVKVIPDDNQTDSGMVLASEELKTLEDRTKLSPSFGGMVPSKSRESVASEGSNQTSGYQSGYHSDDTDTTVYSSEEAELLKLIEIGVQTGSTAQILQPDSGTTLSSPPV

As to `COc1cc2nccc(Oc3ccc(NC(=O)c4cnc(SC(C)C)n(-c5ccc(F)cc5)c4=O)cc3)c2cc1OC` [Compound 539, N-[4-(6,7-dimethoxyquinolin-4-yl)oxyphenyl]-1-(4-fluorophenyl)-6-oxo-2-propan-2-ylsulfanylpyrimidine-5-carboxamide], the pIC50 in test [1] was over 7.00; in test [2] (protocol of Example C-2), over 7.00; in test [3], under 6.52; in test [4] (protocol of Example B-2), 6.52 to 7.00.

For the compound `COc1nc2c(Oc3ccc(NC(=O)c4cnc(C)c(-c5ccc(F)cc5)c4O)cc3F)ccnc2cc1C` [Compound 458, N-[3-fluoro-4-[(6-methoxy-7-methyl-1,5-naphthyridin-4-yl)oxy]phenyl]-5-(4-fluorophenyl)-4-hydroxy-6-methylpyridine-3-carboxamide], the pIC50 in test [1] is over 7.00; in test [2] (protocol of Example C-2), over 7.00; in test [3] it was over 7.00; in test [4] (protocol of Example B-2), 6.52 to 7.00.

On to `Cc1cc(F)ccc1-c1c(C)nc(C)c(C(=O)Nc2ccc(Oc3ccnc4cccnc34)c(F)c2)c1O` [Compound 505, 5-(4-fluoro-2-methylphenyl)-N-[3-fluoro-4-(1,5-naphthyridin-4-yloxy)phenyl]-4-hydroxy-2,6-dimethylpyridine-3-carboxamide], for which the pIC50 is 6.52 to 7.00 in test [1], 6.52 to 7.00 in test [2] (protocol of Example C-2), over 7.00 in test [3] and under 6.52 in test [4] (protocol of Example B-2).

As for `COc1cnc2c(Oc3ccc(NC(=O)c4cc(C)nn(-c5ccc(F)cc5)c4=O)cc3)ccnc2c1` [Compound 522, 2-(4-fluorophenyl)-N-[4-[(7-methoxy-1,5-naphthyridin-4-yl)oxy]phenyl]-6-methyl-3-oxopyridazine-4-carboxamide], the pIC50 in test [1] was under 6.52; in test [2] (protocol of Example C-2), 6.52 to 7.00; in test [3], under 6.52; in test [4] (protocol of Example B-2), under 6.52.

As to `COc1cc2nccc(Oc3ccc(NC(=O)c4c(C)nc(C)c(-c5ccc(F)cc5CO)c4O)cc3F)c2nc1OC` [Compound 518, N-[4-[(6,7-dimethoxy-1,5-naphthyridin-4-yl)oxy]-3-fluorophenyl]-5-[4-fluoro-2-(hydroxymethyl]phenyl]-4-hydroxy-2,6-dimethylpyridine-3-carboxamide], the pIC50 in test [1], in test [2] (protocol of Example C-2), in test [3] and in test [4] (protocol of Example B-2) was over 7.00 each time.

`C=C(C)c1cnc2c(Oc3ccc(NC(=O)c4cnc(C)c(-c5ccc(F)cc5C)c4O)cc3)ccnc2c1` [Compound 448, 5-(4-fluoro-2-methylphenyl)-4-hydroxy-6-methyl-N-[4-[(7-prop-1-en-2-yl-1,5-naphthyridin-4-yl)oxy]phenyl]pyridine-3-carboxamide]: the pIC50 in test [1] was over 7.00; in test [2] (protocol of Example C-2), over 7.00; in test [3] it was over 7.00; in test [4] (protocol of Example B-2), 6.52 to 7.00.

As to `COc1cc2nccc(Oc3ccc(NC(=O)c4cn(CC(F)(F)F)c(C)c(-c5ccc(F)cc5)c4=O)cc3)c2cc1OC` [Compound 260, N-[4-(6,7-Dimethoxyquinolin-4-yl)oxyphenyl]-5-(4-fluorophenyl)-6-methyl-4-oxo-1-(2,2,2-trifluoroethyl)pyridine-3-carboxamide], the pIC50 in test [1] was over 7.00; in test [2] (protocol of Example C-2 (other compounds)) it was over 7.00; in test [3], under 6.52; in test [4] (protocol of Example B-2 (other compounds)), under 6.52.

`COc1cc2nccc(Oc3ccc(NC(=O)c4cc(C)nn(-c5ccc(F)cc5)c4=O)cc3)c2nc1OC` [Compound 520, N-[4-[(6,7-dimethoxy-1,5-naphthyridin-4-yl)oxy]phenyl]-2-(4-fluorophenyl)-6-methyl-3-oxopyridazine-4-carboxamide]: the pIC50 was over 7.00 in test [1], over 7.00 in test [2] (protocol of Example C-2), over 7.00 in test [3] and under 6.52 in test [4] (protocol of Example B-2).

Regarding `COc1cc2nccc(Oc3ccc(NC(=O)c4nn(C)c(C)c(-c5ccc(F)cc5C)c4=O)cc3F)c2nc1OC` [Compound 512, N-[4-[(6,7-dimethoxy-1,5-naphthyridin-4-yl)oxy]-3-fluorophenyl]-5-(4-fluoro-2-methylphenyl)-1,6-dimethyl-4-oxopyridazine-3-carboxamide], the pIC50 in test [1], in test [2] (protocol of Example C-2), in test [3] and in test [4] (protocol of Example B-2) was over 7.00 each time.

In the case of `Cc1ccc(C(=O)Nc2ccc(Oc3ccnc4cc(O)cnc34)c(F)c2)c(=O)n1-c1ccc(F)cc1` [Compound 551, N-[3-Fluoro-4-[(7-hydroxy-1,5-naphthyridin-4-yl)oxy]phenyl]-1-(4-fluorophenyl)-6-methyl-2-oxopyridine-3-carboxamide], the negative-log IC50 (pIC50) in test [1] is over 7.00; in test [2] (protocol of Example C-2), over 7.00; in test [3] it was over 7.00; in test [4] (protocol of Example B-2) it was 6.52 to 7.00.

Turning to `COc1cnc2c(Oc3ccc(NC(=O)c4cc(C)nn(-c5ccc(F)cc5)c4=O)cc3F)ccnc2c1` [Compound 521, N-[3-fluoro-4-[(7-methoxy-1,5-naphthyridin-4-yl)oxy]phenyl]-2-(4-fluorophenyl)-6-methyl-3-oxopyridazine-4-carboxamide], the negative logarithm of the IC50 (pIC50) in test [1] was under 6.52; in test [2] (protocol of Example C-2) it was over 7.00; in test [3], under 6.52; in test [4] (protocol of Example B-2), under 6.52.

With `C=C(C)c1cnc2c(Oc3ccc(NC(=O)c4c(C)nc(C)c(-c5ccc(F)cc5)c4O)cc3F)ccnc2c1` [Compound 451, 5-(4-fluorophenyl)-N-[3-fluoro-4-[(7-prop-1-en-2-yl-1,5-naphthyridin-4-yl)oxy]phenyl]-4-hydroxy-2,6-dimethylpyridine-3-carboxamide], the negative logarithm of the IC50 (pIC50) in test [1], in test [2] (protocol of Example C-2), in test [3] and in test [4] (protocol of Example B-2) was over 7.00 throughout.

In the case of `C=C(C)c1cnc2c(Oc3ccc(NC(=O)c4cnc(C)c(-c5ccc(F)cc5C)c4O)cc3F)ccnc2c1` [Compound 450, 5-(4-fluoro-2-methylphenyl)-N-[3-fluoro-4-[(7-prop-1-en-2-yl-1,5-naphthyridin-4-yl)oxy]phenyl]-4-hydroxy-6-methylpyridine-3-carboxamide], the pIC50 was over 7.00 in test [1], over 7.00 in test [2] (protocol of Example C-2), over 7.00 in test [3] and 6.52 to 7.00 in test [4] (protocol of Example B-2).

`COCCOc1cnc2c(Oc3ccc(NC(=O)c4ccc(C)n(-c5ccc(F)cc5)c4=O)cc3F)ccnc2c1` [Compound 552, N-[3-Fluoro-4-[[7-(2-methoxyethoxy)-1,5-naphthyridin-4-yl]oxy]phenyl]-1-(4-fluorophenyl)-6-methyl-2-oxopyridine-3-carboxamide]: the pIC50 in test [1], in test [2] (protocol of Example C-2), in test [3] and in test [4] (protocol of Example B-2) was over 7.00 in each case.

Take `C=C(C)c1cnc2c(Oc3ccc(NC(=O)c4c(C)cc(C)n(-c5ccc(F)cc5)c4=O)cc3F)ccnc2c1` [Compound 457, 1-(4-fluorophenyl)-N-[3-fluoro-4-[(7-prop-1-en-2-yl-1,5-naphthyridin-4-yl)oxy]phenyl]-4,6-dimethyl-2-oxopyridine-3-carboxamide]: the pIC50 in test [1], in test [2] (protocol of Example C-2), in test [3] and in test [4] (protocol of Example B-2) was over 7.00 in each case.

`COCc1nc(C)c(-c2ccc(F)cc2C)c(O)c1C(=O)Nc1ccc(Oc2ccnc3ccc(OC)nc23)cc1` [Compound 516, 5-(4-fluoro-2-methylphenyl)-4-hydroxy-2-(methoxymethyl)-N-[4-[(6-methoxy-1,5-naphthyridin-4-yl)oxy]phenyl]-6-methylpyridine-3-carboxamide]: the pIC50 in test [1] was over 7.00; in test [2] (protocol of Example C-2) it was over 7.00; in test [3], 6.52 to 7.00; in test [4] (protocol of Example B-2), under 6.52.

For the compound `COc1cc2c(Oc3ccc(NC(=O)c4ccc(C)n(-c5ccc(F)cc5)c4=O)cc3F)ccnc2cn1` [Compound 494, N-[3-fluoro-4-[(6-methoxy-1,7-naphthyridin-4-yl)oxy]phenyl]-1-(4-fluorophenyl)-6-methyl-2-oxopyridine-3-carboxamide], the pIC50 in test [1] was over 7.00; in test [2] (protocol of Example C-2), over 7.00; in test [3], over 7.00; in test [4] (protocol of Example B-2), 6.52 to 7.00.

For `COc1cc2nccc(Oc3ccc(NC(=O)c4c(C)n(C)c(C)c(-c5ccc(F)cc5)c4=O)cc3)c2nc1OC` [Compound 523, N-[4-[(6,7-dimethoxy-1,5-naphthyridin-4-yl)oxy]phenyl]-5-(4-fluorophenyl)-1,2,6-trimethyl-4-oxopyridine-3-carboxamide], the pIC50 was over 7.00 in test [1], over 7.00 in test [2] (protocol of Example C-2), under 6.52 in test [3] and under 6.52 in test [4] (protocol of Example B-2).
